PMC3545992, “Trisubstituted Pyrazolopyrimidines as Novel Angiogenesis Inhibitors” (PLoS ONE, 2013)
pIC50: −log10 of the molar value.

Legend:
Cdk1/CycB = target: T1, Cdk1/CycB (Homo sapiens, UniProt P06493); experiment: In vitro kinase profile (ProQinase); type: biochemical
T1 construct: purchased ProQinase (Freiburg, Germany)
Description: (§1) Therefore, it was of interest to see which kinases, especially which Cdks, are inhibited by those compounds. The kinase profiling was performed by ProQinase (Freiburg, Germany) for LGR 1406 and 1407. For LGR 1404 kinase profiling has recently been published previously. LGR 1406 and 1407 were tested for their IC50 in a panel of 24 kinases, including the Cdk1, Cdk2, Cdk4, Cdk5, Cdk6, Cdk7 and Cdk9. The other kinases tested were PTK6, EGFR, FAK, FGFR1 and FGFR2, NLK, PAK4, VEGFR1 and VEGFR2, MEK1, ROCK1, RAF1, ALK, RSK3, AURKA, and AMPKα1.

Cdk2/CycA = target: T2, Cdk2/CycA (Homo sapiens, UniProt P24941); experiment: In vitro kinase profile (ProQinase); type: biochemical
T2 construct: purchased ProQinase (Freiburg, Germany)
Description: as §1

Cdk4/CycD1 = target: T3, Cdk4/CycD1 (Homo sapiens, UniProt P11802); experiment: In vitro kinase profile (ProQinase); type: biochemical
T3 construct: purchased ProQinase (Freiburg, Germany)
Description: as §1

Cdk2 = test system: Cdk2; design: method as in Jorda et al. [23]; conditions: ref Jorda et al. [23]; cited from earlier work
Cdk5 = test system: Cdk5; design: method as in Jorda et al. [23]; conditions: ref Jorda et al. [23]; cited from earlier work
HMEC-1 cells = experiment: Microscopy / propidium iodide staining for cell death at proliferation-assay cell density; type: cell-based; conditions: 30 µM, 72 h
Description: A: HMEC-1 cells were seeded in the same density as for the proliferation assay and treated with the respective compound at 30 µM for 72 h to test whether reduced cell numbers in the proliferation assay are due to inhibition of proliferation or to excessive cell death. No increase of detached, obviously dead or propidium iodide positive cells was detected. B and C: Confluent layers of HUVECs were scratched and the cells were allowed to migrate for 16 h in the presence or absence of 10 µM of the compounds. B: The columns indicate the area re-covered by migrating cells (n = 3, mean ± SEM, * p<0.05, One Way ANOVA, Dunnett). C: Scratches at endpoint, representative images taken out of three experiments.
HMEC-1 were seeded into 96-well-plates (1,500 cells/well). After 24 h, the cells were stimulated with the indicated compounds. At the same time point, cells in a reference plate were stained with crystal violet, serving as initial cell number. After 72 hours of stimulation, cells were fixed and stained with crystal-violet solution for 10 minutes, washed with water, and air dried. Crystal violet was eluted with dissolving buffer and absorbance was measured at 550 nm (Tecan Sunrise Absorbance reader, TECAN, Crailsheim, Germany). […] Phase contrast and fluorescence images were obtained with an inverted Nikon microscope (Ti, Nikon, Düsseldorf, Germany) equipped with a 10x objective.

FAK = target: T4, FAK (Homo sapiens, UniProt Q05397); experiment: In vitro kinase profile (ProQinase); type: biochemical
T4 construct: purchased ProQinase (Freiburg, Germany)
Description: as §1

PAK4 = target: T5, PAK4 (Homo sapiens, UniProt O96013); experiment: In vitro kinase profile (ProQinase); type: biochemical
T5 construct: purchased ProQinase (Freiburg, Germany)
Description: as §1

RSK3 = target: T6, RSK3 (Homo sapiens, UniProt Q15349); experiment: In vitro kinase profile (ProQinase); type: biochemical
T6 construct: purchased ProQinase (Freiburg, Germany)
Description: as §1

T1 sequence (P06493 whole entry): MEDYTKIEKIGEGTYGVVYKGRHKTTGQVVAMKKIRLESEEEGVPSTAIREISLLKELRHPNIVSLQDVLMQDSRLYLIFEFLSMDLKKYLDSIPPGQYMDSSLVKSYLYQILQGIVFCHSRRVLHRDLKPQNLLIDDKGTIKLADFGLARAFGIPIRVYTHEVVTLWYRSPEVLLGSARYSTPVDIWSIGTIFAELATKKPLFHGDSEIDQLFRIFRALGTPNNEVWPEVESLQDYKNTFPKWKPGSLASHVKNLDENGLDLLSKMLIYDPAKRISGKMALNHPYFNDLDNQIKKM
T1 sequence (P14635 whole entry partner): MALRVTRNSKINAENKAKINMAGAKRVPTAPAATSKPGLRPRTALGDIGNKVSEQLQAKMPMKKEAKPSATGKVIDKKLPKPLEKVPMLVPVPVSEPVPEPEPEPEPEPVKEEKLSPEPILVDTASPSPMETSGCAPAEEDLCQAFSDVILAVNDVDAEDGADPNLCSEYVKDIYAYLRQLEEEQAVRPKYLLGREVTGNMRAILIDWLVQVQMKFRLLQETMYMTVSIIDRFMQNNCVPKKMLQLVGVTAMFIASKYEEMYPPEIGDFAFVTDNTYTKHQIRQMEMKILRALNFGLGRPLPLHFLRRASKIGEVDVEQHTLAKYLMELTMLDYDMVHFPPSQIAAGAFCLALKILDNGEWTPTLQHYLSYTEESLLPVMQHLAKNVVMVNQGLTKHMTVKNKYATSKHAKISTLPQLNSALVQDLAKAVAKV
T3 sequence (P11802 whole entry): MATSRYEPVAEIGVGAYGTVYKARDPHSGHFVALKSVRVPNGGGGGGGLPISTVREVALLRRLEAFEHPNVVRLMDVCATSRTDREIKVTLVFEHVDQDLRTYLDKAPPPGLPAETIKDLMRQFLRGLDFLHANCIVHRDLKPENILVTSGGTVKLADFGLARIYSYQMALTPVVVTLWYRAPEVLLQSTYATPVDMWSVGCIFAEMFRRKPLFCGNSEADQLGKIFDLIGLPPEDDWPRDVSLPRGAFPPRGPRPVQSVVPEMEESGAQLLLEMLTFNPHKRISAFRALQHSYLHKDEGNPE
T3 sequence (P24385 whole entry partner): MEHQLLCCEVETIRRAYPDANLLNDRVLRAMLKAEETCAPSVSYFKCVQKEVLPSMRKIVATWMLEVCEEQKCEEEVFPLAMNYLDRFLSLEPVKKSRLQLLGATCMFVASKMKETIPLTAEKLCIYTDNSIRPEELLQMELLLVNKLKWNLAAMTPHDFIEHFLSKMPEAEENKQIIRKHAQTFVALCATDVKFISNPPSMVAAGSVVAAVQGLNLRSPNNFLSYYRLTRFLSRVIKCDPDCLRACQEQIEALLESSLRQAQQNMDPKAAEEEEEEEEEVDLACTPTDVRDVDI
T6 sequence (Q15349 whole entry): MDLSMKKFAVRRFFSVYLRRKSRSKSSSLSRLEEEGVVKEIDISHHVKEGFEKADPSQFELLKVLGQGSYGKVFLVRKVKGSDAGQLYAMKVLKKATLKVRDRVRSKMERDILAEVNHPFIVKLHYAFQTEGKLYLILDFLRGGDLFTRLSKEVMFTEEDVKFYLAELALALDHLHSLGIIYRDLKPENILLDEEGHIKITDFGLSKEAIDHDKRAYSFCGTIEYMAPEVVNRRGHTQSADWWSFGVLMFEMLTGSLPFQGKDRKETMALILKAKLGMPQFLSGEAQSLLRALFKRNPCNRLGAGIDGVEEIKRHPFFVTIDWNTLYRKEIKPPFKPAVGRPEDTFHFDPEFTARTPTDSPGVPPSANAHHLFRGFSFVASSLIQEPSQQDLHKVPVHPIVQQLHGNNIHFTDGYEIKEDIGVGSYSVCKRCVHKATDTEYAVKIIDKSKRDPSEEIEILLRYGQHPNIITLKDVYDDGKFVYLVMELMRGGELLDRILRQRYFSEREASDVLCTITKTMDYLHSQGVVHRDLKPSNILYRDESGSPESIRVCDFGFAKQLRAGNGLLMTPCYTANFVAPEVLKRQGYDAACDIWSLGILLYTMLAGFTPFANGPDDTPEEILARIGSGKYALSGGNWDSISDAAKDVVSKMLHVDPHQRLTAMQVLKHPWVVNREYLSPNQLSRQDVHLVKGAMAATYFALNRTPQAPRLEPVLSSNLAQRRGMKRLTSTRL
T5 sequence (O96013 whole entry): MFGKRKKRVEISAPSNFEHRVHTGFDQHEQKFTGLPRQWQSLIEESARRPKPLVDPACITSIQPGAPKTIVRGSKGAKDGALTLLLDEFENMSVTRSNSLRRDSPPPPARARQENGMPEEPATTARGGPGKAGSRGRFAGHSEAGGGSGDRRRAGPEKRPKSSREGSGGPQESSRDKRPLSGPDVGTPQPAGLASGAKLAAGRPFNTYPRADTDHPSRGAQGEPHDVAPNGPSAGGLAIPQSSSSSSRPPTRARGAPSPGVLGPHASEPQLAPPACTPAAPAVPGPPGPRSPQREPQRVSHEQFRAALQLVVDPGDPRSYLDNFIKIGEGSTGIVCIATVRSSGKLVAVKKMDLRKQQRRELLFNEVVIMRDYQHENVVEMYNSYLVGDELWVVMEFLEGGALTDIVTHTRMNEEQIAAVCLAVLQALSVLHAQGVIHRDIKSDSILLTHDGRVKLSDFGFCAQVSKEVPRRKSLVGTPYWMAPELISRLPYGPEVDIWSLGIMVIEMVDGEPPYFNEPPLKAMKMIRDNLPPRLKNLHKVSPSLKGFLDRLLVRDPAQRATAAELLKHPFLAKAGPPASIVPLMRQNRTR
T4 sequence (Q05397 whole entry): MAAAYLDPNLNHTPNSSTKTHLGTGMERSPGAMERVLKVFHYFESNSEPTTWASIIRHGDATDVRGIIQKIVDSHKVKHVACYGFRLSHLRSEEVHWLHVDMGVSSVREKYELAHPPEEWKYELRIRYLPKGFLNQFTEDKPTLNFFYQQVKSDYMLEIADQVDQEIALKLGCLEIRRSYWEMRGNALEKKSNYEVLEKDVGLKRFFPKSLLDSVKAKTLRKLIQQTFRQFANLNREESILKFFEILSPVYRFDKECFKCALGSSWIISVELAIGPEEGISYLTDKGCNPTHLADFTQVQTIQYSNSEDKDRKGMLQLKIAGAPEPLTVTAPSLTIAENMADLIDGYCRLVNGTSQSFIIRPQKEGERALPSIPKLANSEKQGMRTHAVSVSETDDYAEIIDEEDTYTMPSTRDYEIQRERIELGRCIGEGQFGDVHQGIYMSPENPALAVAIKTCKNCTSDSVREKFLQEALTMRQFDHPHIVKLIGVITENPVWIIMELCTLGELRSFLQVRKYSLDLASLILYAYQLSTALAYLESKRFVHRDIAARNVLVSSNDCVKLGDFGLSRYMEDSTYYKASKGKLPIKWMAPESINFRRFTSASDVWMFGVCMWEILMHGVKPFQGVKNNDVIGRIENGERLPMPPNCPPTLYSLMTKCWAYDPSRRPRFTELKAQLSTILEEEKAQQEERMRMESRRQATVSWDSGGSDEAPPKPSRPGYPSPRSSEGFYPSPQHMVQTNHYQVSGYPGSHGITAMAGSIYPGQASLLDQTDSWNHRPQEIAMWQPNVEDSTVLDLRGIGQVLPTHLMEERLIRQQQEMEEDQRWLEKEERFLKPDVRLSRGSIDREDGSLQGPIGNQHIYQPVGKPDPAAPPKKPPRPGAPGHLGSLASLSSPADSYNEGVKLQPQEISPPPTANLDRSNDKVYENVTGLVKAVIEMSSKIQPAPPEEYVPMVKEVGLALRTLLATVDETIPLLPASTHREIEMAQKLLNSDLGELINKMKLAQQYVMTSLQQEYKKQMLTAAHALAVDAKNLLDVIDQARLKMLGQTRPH

## CC(C)c1n[nH]c2c(NCc3ccccc3)nc(NC3CCC(N)CC3)nc12 (stereo not drawn) [LGR 1407, 5-[(4-E-aminocyclohexyl)amino]-7-benzylamino-3-isopropyl-1(2)H-pyrazolo[4,3-d]pyrimidine]
Cdk1/CycB
  pIC50: 5.24
Cdk2/CycA
  pIC50: 5.82
Cdk4/CycD1
  pIC50: 4.18

## CC[C@H](CO)Nc1nc(NCc2ccccc2)c2n[nH]c(C(C)C)c2n1 [LGR 1404, 7-Benzylamino-5(R)-[(1-hydroxymethyl)propylamino]-3-isopropyl-1(2)H-pyrazolo[4,3-d]pyrimidine]
Cdk2
  pIC50: 6.66
Cdk5
  pIC50: 6.03

## CC(C)c1n[nH]c2c(NCc3ccccc3)nc(NC3CCCCC3N)nc12 (stereo not drawn) [LGR 1406, 5-[(2-E/Z-aminocyclohexyl)amino]-7-benzylamino-3-isopropyl-1(2)H-pyrazolo[4,3-d]pyrimidine]
HMEC-1 cells
  morphologically altered, dead or detached cells, loss of membrane integrity (propidium iodide): no increase of morphologically altered, dead or detached cells, and no loss of membrane integrity
Cdk1/CycB
  pIC50: 5.49
Cdk2/CycA
  pIC50: 6.00
Cdk4/CycD1
  pIC50: 4.82
FAK
  pIC50: > 5.00
PAK4
  pIC50: > 5.00
RSK3
  pIC50: > 5.00
